This assay addresses T1, human CXCR4 receptor (Homo sapiens, UniProt P61073).
T1 construct: expressed in transfected cells
In words: Measurement of intracellular Ca+2 responses (FLIPR), antagonism of the SDF-1α response. The class given is cell-based. Conditions: HEK-Gqi5 cells stably expressing human CXCR4; for IC50: antagonism of SDF-1α at 1.9 nM (EC65), Fluo-4 calcium, FLIPR; for inhibition: percent antagonism of SDF-1α at 1.9 nM (EC65), test drug 2.44 nM to 40,000 nM. As to the method:
Measurement of Intracellular Ca^+2 Responses for CXCR4 Compounds
HEK-Gqi5 cells stably expressing the human CXCR4 receptor were utilized for these studies. The growth media for the CXCR4 receptor expressing cell line was DMEM high glucose medium supplemented with 10% fetal bovine serum (FBS), 1% antibiotic-antimycotic, 50 ug/ml hygromycin B, and 400 μg/ml geneticin. Ten thousand cells per well were plated into 384-well poly-D-lysine coated plates one day prior to use. On the day of the experiment, the cells were washed twice with Hank's Balanced Salt Solution supplemented with 20 mM hepes (HBSS/hepes buffer). The cells were then dye loaded with 2 uM Fluo-4 diluted in the HBSS/Hepes buffer and incubated at 37° C. for 40 minutes. Extracellular dye was removed by washing the cell plates four times prior to placing the plates in the FLIPR (Fluorometric Imaging Plate Reader, Molecular Devices). Ligands were diluted in HBSS/Hepes buffer and prepared in 384-well microplates. The positive control, stromal-cell derived factor-1 (SDF-1α), was diluted in HBSS/Hepes buffer with 4 mg/ml fatty acid free bovine serum albumin. Two drug additions were made by the FLIPR. The first drug addition was the test drug in concentrations ranging from 2.44 nM to 40,000 nM. After this addition, fluorescent measurements were taken. Any calcium release in response to this drug addition represents agonist activity of the compounds. The second drug addition was SDF-1α at a final concentration of 1.9 nM (EC65). Fluorescence measurements were also taken after this second drug addition and were used to determine the ability of the test compounds to antagonize the SDF-1α response. Results were expressed as EC50 and efficacy values, as well as IC50 and percent antagonism values. As controls, SDF-1α (CXCR4 agonist) and AMD3100 (CXCR4 antagonist) dose-response curves were also determined in each study.

T1 sequence (P61073 whole entry): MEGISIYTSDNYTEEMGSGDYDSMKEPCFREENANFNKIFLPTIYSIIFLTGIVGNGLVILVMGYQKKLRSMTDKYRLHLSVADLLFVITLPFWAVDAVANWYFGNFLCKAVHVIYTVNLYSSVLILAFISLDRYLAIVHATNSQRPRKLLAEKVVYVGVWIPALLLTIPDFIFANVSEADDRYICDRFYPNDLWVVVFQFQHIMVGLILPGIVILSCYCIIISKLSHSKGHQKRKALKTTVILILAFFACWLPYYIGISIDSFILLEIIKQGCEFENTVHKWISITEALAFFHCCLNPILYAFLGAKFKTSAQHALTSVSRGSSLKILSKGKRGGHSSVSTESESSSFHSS

With `COc1cccc(N(C)C)c1CN1CCC(Nc2nc(NCCN(C)C)nc3c2CCC3)CC1` [Compound 1, N^2-[2-(Dimethylamino)ethyl]-N^4-{1-[2-(dimethylamino)-6-methoxybenzyl]piperidin-4-yl}-6,7-dihydro-5H-cyclopenta[d]pyrimidine-2,4-diamine], the IC50 (in general, the midpoint of a concentration-inhibition curve) stood at 2920 nM and the inhibition – broadly, the change of the read-out against control, counted positive when it falls – was 93%.

Take `CN(C)CCNc1nc(NC2CCN(Cc3c(OCCN(C)C)cccc3N(C)C)CC2)c2sccc2n1` [Compound 2]: the IC50 came out at 110 nM and the inhibition came to 95%.

The record behind these values is patent publication US9090624B2, “Aromatic bycyclic derivatives as CXCR4 receptor modulators” (Allergan, Inc., priority 2011, dated 2015).
